# What was measured:
# [1] = target: T1, human serotonin transporter (Homo sapiens, UniProt P31645); test: [3H] imipramine binding to cell homogenate of CHO cells expressing human serotonin transporter; details: 100 μg/mL (1S,3S)-MTCA sample; 2 nM [3H] imipramine; 22° C. for 60 minutes; control = 100
# T1 construct: expressed in transfected cells; host or cells: CHO cells, vector pRc/CMV, calcium phosphate transfection
# Description: A commercially-available (1S,3S)-2,3,4,9-tetrahydro-1-methyl-1H-pyrido[3,4-b]-indole-3-carboxylic acid reagent (manufactured by Wako Pure Chemical Industries, Ltd.) was used as a subject substance ((1S,3S)-MTCA), and the inhibitory effect of (1S,3S)-MTCA on serotonin transporters was determined using a method described in Masahiko T, et al: European Journal of Pharmacology 368 277-283, 1999.
# CHO cells were transfected with a secretory vector pRc/CMV, in which cDNA of a human serotonin transporter was incorporated, by a calcium phosphate method. […]
# Then, the medium was removed by aspiration to prepare a cell homogenate. […] The concentration of protein in the resulting cell homogenate was measured by a Lowry method using bovine serum albumin (BSA) as a standard.
# Thereafter, 25 μL, of (1S,3S)-MTCA solution dissolved in physiological saline (100 μg/mL) and the solution 2 (225 μL) comprising 2 nM [^3H] imipramine were added to a 96-hole microplate, and the cell homogenate (amount of protein: 15 μg) obtained in (1) was added to the microplate, followed by incubation at 22° C. for 60 minutes. […] Non-specific binding of [^3H] imipramine to the cell homogenate was determined using 10 μM imipramine. […]
# [2] = system: C57BL/6N mice with motivation decreased through open-space swimming; test: Open-space swimming combined with Morris water maze test (escape-latency); format: in vivo
# Description: The subjects were […] male C57BL/6N mice that had never been subjected to any experiment. At the beginning of the experiment, an average age of the subjects was about 12 weeks old, and an average weight of the subjects was 24.9 g (SD=3.30). The subjects were housed in an acrylic cage in an animal house in which the room temperature was 23° C. and the humidity was 50 to 60%. The inside of the animal house was set such that a light is alternately turned on and off in a 12-hour cycle (light period: from 8:00 AM to 8:00 PM). This experiment was carried out every day at the same time period during the light period. As feedstuff, a dry solid feed (Labo MR manufactured by Nosan Corporation) was fed. The supply of neither feedstuff nor water was limited.
# The subjects were divided into 3 groups, and they were named noOS-Vehicle group (group of normal mice) (n=10), OS-(1S,3S)-MTCA-administered group (n=10), and OS-Vehicle group (group of mice having depression) (n=10), respectively.
# A circular pool with an inner diameter of 95 cm and a depth of 35 cm was used. The pool was surrounded by white partitions each having a height of 120 cm and a width of 150 cm. […] The place where the escape platform was located was a central part of one of the four evenly-divided fan-shaped quadrants (Quadrant 1 to 4) of a circular water surface, and was determined for each subject. […]
# [3] = system: γ-crystallin; details: cited from earlier work
# [4] = target: T2, monoamine oxidase A (Homo sapiens, UniProt P21397); details: cited from earlier work
# T2 sequence (P21397 1-527): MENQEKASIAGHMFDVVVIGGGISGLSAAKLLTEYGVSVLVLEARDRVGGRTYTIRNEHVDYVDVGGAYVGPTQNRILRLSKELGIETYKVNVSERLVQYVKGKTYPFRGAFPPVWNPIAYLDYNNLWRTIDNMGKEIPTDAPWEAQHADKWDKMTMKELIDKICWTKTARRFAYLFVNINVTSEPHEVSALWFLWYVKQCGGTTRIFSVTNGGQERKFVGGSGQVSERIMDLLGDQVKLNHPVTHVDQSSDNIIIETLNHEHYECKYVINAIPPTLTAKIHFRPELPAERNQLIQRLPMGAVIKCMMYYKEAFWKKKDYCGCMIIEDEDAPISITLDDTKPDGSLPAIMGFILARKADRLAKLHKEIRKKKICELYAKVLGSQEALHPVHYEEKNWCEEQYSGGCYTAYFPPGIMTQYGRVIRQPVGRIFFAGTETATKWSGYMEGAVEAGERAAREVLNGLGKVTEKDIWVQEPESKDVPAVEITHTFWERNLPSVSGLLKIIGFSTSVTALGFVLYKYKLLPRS
# [5] = system: uptake of serotonin in the brain; details: cited from earlier work
# [6] = system: rats; details: forced-swimming tests using rats; cited from earlier work
# T1 sequence (P31645 whole entry): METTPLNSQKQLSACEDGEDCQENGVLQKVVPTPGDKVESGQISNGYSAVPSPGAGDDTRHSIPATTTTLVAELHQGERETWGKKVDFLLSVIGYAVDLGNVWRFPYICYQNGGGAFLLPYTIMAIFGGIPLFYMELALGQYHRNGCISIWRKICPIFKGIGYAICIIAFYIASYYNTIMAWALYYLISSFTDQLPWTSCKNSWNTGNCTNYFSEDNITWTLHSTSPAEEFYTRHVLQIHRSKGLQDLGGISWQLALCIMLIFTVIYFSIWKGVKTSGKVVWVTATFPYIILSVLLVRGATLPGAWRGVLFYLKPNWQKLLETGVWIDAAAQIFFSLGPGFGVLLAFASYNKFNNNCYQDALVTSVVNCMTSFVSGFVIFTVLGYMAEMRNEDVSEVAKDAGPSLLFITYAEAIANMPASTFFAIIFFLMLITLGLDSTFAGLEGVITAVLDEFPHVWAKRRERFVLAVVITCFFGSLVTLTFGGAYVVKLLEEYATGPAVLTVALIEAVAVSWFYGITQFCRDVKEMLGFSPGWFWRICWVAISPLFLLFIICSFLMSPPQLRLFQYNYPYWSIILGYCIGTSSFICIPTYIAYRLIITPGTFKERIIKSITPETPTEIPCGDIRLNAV
Structure (SMILES),amount of [3H] imipramine that specifically bound to the cell homogenate (control was 100) [1],"average escape-latency (average of five trials) ([2]; Day 1 of administration, 20 mg/kg orally 60 minutes before training, open-space swimming treated mice, OS-Vehicle 52.6, noOS-Vehicle 44.1) [s]","time taken to reach the escape platform compared with the OS-Vehicle group ([2]; continuous administration up to Day 10, 20 mg/kg orally every day, FIG. 3)",self-polymerization reaction of γ-crystallin ([3]; Fenton reaction using FeCl3),photopolymerization reaction of γ-crystallin [3],activity of monoamine oxidase A [4],uptake of serotonin in the brain [5],immobility time [6]
"C[C@@H]1N[C@H](C(=O)O)Cc2c1[nH]c1ccccc21 [(1S,3S)-MTCA, (1S,3S)-1-methyl-1,2,3,4-tetrahydro-β-carboline-3-carboxylic acid]",69,42.7,decreased significantly,prevents,prevents,–,–,–
"COc1ccc2[nH]c3c(c2c1)CCNC3 [pinoline, 6-methoxy-1,2,3,4-tetrahydro-β-carboline]",–,–,–,–,–,inhibits,inhibits,reduces
